Test results from US12172993B2 (priority 2018, dated 2024).
In brackets after ≈: the same amount, converted by molar mass. Read-outs that look alike come from different tables or passages of the source.

Key:
[1] = mouse, microsomes
physchem = type: physicochemical
[2] = human, microsomes
SIK3 [3] = biological target: T1, SIK3 (Homo sapiens (Human), UniProt Q9Y2K2)
MC38 cells = assay: cells; conditions: Mus musculus, MC-38, 72 h, read-out: MC38 IC50 (nM at 100 ng/mL TNF)
SRC (GST-HIS-tag) = SRC (GST-HIS-tag) (Homo sapiens (Human), UniProt P12931); type: biochemical
SIK2 = SIK2 (Homo sapiens (Human), UniProt Q9H0K1); type: biochemical
in vitro [4] = conditions: mouse, microsomes
SIK1 = SIK1 (Homo sapiens (Human), UniProt P57059); type: biochemical
ABL1 wt = ABL1 wt (Homo sapiens (Human), UniProt P00519); type: biochemical
Chain of ABL1 wt (P00519 118-535 limits assumed): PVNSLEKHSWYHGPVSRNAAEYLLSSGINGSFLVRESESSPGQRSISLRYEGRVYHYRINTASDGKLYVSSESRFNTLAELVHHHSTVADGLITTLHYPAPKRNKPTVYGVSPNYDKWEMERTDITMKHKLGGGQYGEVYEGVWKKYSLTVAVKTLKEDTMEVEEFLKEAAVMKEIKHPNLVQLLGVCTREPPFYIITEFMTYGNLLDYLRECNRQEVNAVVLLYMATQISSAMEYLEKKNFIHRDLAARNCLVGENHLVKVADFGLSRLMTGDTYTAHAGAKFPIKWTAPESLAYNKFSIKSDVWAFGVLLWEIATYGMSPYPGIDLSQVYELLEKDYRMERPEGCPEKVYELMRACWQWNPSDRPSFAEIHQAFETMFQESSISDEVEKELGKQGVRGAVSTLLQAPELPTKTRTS

in vitro [5] = conditions: human, microsomes
[6] = humans; prescribing information; cited from earlier work
in vivo [7] = conditions: male, CD1, mouse, plasma
MDR1 = assay: in vitro; conditions: dog, MDCK-MDR1
in vitro [8] = conditions: dog, MDCK
in vivo [9] = conditions: CD1, mouse, plasma, oral, 30 mg/kg; read-out: Free concentration (nM) at timepoint after 30 mg/kg po
SIK3 [10] = biological target: T1, SIK3; assay: biochemical
M579-A2-luc = type: cell-based
HDAC4 phosphorylation = conditions: PANC-1 cells, 10 ng/mL rHuTNF, 3 h
NFKB activity = conditions: PANC-1 reporter cells, 10 ng/ml rHuTNF

With `Cc1nc(Nc2ncc(C(=O)Nc3c(C)nn(C)c3C)s2)cc(N2CCN(CCO)CC2)n1` [Compound C8, 2-((6-(4-(2-hydroxyethyl)piperazin-1-yl)-2-methylpyrimidin-4-yl)amino)-N-(1,3,5-trimethyl-1H-pyrazol-4-yl)thiazole-5-carboxamide] the Intrinsic clearance (L/min/mg) [1] was under 14 µL/min/mg, the “% Remaining at 40 min (%)” value [1] was 86% and the solubility kinetic (physchem; kinetic from dmso stock) was 128 to 195 µM (≈ 60.4 to 92 µg/mL). The “Percentage unbound (%)” value (human plasma-proteins) was 5%, the “Percentage unbound (%)” value (murine plasma-proteins) was 62% and the Intrinsic clearance (L/min/mg) [2] was under 14 µL/min/mg. The “% Remaining at 40 min (%)” value [2] was 81%.
`CC(=O)N1CCN(c2cc(Nc3ncc(C(=O)Nc4c(C)csc4Cl)s3)nc(C)n2)CC1` [Compound D8, 2-((6-(4-acetylpiperazin-1-yl)-2-methylpyrimidin-4-yl)amino)-N-(2-chloro-4-methylthiophen-3-yl)thiazole-5-carboxamide] gave an IC50 (SIK3 [3]) of about 150 nM and an IC50 (MC38 cells) of over 200 nM.
In the case of `Cc1nc(NCCO)cc(Nc2ncc(C(=O)Nc3c(Cl)ccnc3C)s2)n1` [Compound C11, N-(4-chloro-2-methylpyridin-3-yl)-2-((6-((2-hydroxyethyl)amino)-2-methylpyrimidin-4-yl)amino)thiazole-5-carboxamide], the IC50 (SRC (GST-HIS-tag)) is reported as under 1.5 nM.
In the case of `Cc1nc(Nc2ncc(C(=O)Nc3ncccc3C)s2)cc(N2CCN(CCO)CC2)n1` [Compound C2, 2-((6-(4-(2-hydroxyethyl)piperazin-1-yl)-2-methylpyrimidin-4-yl)amino)-N-(3-methylpyridin-2-yl)thiazole-5-carboxamide], the Intrinsic clearance (L/min/mg) [1] is reported as 35 µL/min/mg, the “% Remaining at 40 min (%)” value [1] is reported as 48% and the IC50 (SRC (GST-HIS-tag)) is reported as under 1.5 nM. For the same compound, the solubility kinetic (physchem) was 160 µM (≈ 72.7 µg/mL), the solubility kinetic (physchem; kinetic from dmso stock) was 128 to 195 µM (≈ 58.2 to 88.6 µg/mL) and the IC50 (SIK2) was 427 nM. The half-life (in vitro [4]) was 40 min, the “Percentage unbound (%)” value (human plasma-proteins) was 9% and the “Percentage unbound (%)” value (murine plasma-proteins) was 30%. The Intrinsic clearance (L/min/mg) [2] was under 17 µL/min/mg, the “% Remaining at 40 min (%)” value [2] was 69% and the IC50 (SIK1) was 177 nM. For the same compound, the IC50 (ABL1 wt) was 14.4 nM and the half-life (in vitro [5]) was over 86 min.
For `Cc1cn(-c2cc(NC(=O)c3ccc(C)c(Nc4nccc(-c5cccnc5)n4)c3)cc(C(F)(F)F)c2)cn1` [nilotinib], the “terminal / elimination half-life” value [6] is given as “approximately 17 hours”.
With `Cc1nc(Nc2ncc(C(=O)Nc3c(Cl)ccnc3C)s2)cc(N2CCN(CCO)CC2)n1` [Compound B3, N-(4-chloro-2-methylpyridin-3-yl)-2-((6-(4-(2-hydroxyethyl)piperazin-1-yl)-2-methylpyrimidin-4-yl)amino)thiazole-5-carboxamide] the solubility kinetic (physchem) was 82 µM (≈ 40.1 µg/mL), the solubility kinetic (physchem; kinetic from dmso stock) was 82 µM (≈ 40.1 µg/mL) and the “Percentage unbound (%)” value (human plasma-proteins) was 7%. The “Percentage unbound (%)” value (murine plasma-proteins) was 11%, the AUC(0-inf) (in vivo [7]; iv, 1 mg/kg) was 0.45 µM·h and the AUC(0-t) (in vivo [7]; iv, 1 mg/kg) was 0.437 µM·h. The Cmax (in vivo [7]; iv, 1 mg/kg) was 1230 nM, the MRT inf (in vivo [7]; iv, 1 mg/kg) was 17.4 min and the MRT last (in vivo [7]; iv, 1 mg/kg) was 15 min. It also gave a Tmax (in vivo [7]; iv, 1 mg/kg) of 4.98 min, a Vd (in vivo [7]; iv, 1 mg/kg) of 1.31 L/kg and a clearance (in vivo [7]; iv, 1 mg/kg) of 75 mL/min/kg. The AUC(0-inf) (in vivo [7]; po, 30 mg/kg) was 0.687 µM·h, the AUC(0-t) (in vivo [7]; po, 30 mg/kg) was 0.589 µM·h and the Cmax (in vivo [7]; po, 30 mg/kg) was 202 nM. For the same compound, the Tmax (in vivo [7]; po, 30 mg/kg) was 30 min, the bioavailability (in vivo [7]; po, 30 mg/kg) was 4% and the Intrinsic clearance (L/min/mg) [2] was 24 µL/min/mg. The “half-life” value [2] was 58 min, the “% Remaining at 40 min (%)” value [2] was 60% and the Papp (MDR1) was 20 ×10⁻⁶ cm/s. The Papp (in vitro [8]) was 20 ×10⁻⁶ cm/s.
For `Cc1nc(Nc2ncc(C(=O)Nc3c(Cl)csc3C)s2)cc(N2CCN(CCO)CC2)n1` [Compound D1, N-(4-chloro-2-methylthiophen-3-yl)-2-((6-(4-(2-hydroxyethyl)piperazin-1-y1)-2-methylpyrimidin-4-yl)amino)thiazole-5-carboxamidexs], the concentration at 2 h (in vivo [9]) was 80 nM, the concentration at 6 h (in vivo [9]) was 4 nM and the concentration at 12 h (in vivo [9]) was 2.14 nM. It also gave an IC50 (MC38 cells) of under 200 nM and an IC50 (SIK3 [10]) of 40 to 45 nM.
With `COc1c(F)cccc1NC(=O)c1cnc(Nc2cc(N3CCN(CCO)CC3)nc(C)n2)s1` [Compound B4, N-(3-fluoro-2-methoxyphenyl)-2-((6-(4-(2-hydroxyethyl)piperazin-l-yl)-2-methylpyrimidin-4-yl)amino)thiazole-5-carboxamide] the “cytotoxicity in the presence of TNF (10 ng/mL) compared to inhibitor alone” value (shortened to “cytotoxicity … compared to inhibitor alone”) (M579-A2-luc) was “fails to exhibit cytotoxicity”.
In the case of `Cc1nc(Nc2ncc(C(=O)Nc3c(C)noc3C)s2)cc(N2CCN(CCO)CC2)n1` [Compound C9], the Intrinsic clearance (L/min/mg) [1] is reported as under 14 µL/min/mg, the “% Remaining at 40 min (%)” value [1] is reported as 83% and the IC50 (SIK3 [3]) is reported as 800 nM. It also gave an IC50 (SRC (GST-HIS-tag)) of 6.44 nM, a solubility kinetic (physchem) of 174 µM (≈ 79.8 µg/mL) and a solubility kinetic (physchem; kinetic from dmso stock) of 128 to 195 µM (≈ 58.7 to 89.4 µg/mL). The IC50 (SIK2) was 232 nM, the half-life (in vitro [4]) was over 100 min and the “Percentage unbound (%)” value (human plasma-proteins) was 6%. For the same compound, the “Percentage unbound (%)” value (murine plasma-proteins) was 44%, the Intrinsic clearance (L/min/mg) [2] was under 14 µL/min/mg and the “% Remaining at 40 min (%)” value [2] was 89%. It also gave an IC50 (SIK1) of 169 nM, an IC50 (ABL1 wt) of 27.4 nM and a half-life (in vitro [5]) of over 100 min.
Compound `Cc1nc(Nc2ncc(C(=O)Nc3c(C)cncc3C)s2)cc(N2CCN(CCO)CC2)n1` [Compound C5, N-(3,5-dimethylpyridin-4-yl)-2-((6-(4-(2-hydroxyethyl)piperazin-1-yl)-2-methylpyrimidin-4-yl)amino)thiazole-5-carboxamide] has an IC50 (SRC (GST-HIS-tag)) of under 1.5 nM.
Compound `Cc1nc(Nc2ncc(C(=O)Nc3c(C)csc3Cl)s2)cc(N2CCN(C)CC2)n1` [Compound D9, N-(2-chloro-4-methylthiophen-3-yl)-2-((2-methyl-6-(4-methylpiperazin-1-yl)pyrimidin-4-yl)amino)thiazole-5-carboxamide] has a concentration at 2 h (in vivo [9]) of 44 nM, a concentration at 6 h (in vivo [9]) of 8 nM and a concentration at 12 h (in vivo [9]) of 2.71 nM. The IC50 (SIK3 [3]) was about 60 nM, the IC50 (MC38 cells) was under 100 nM and the “Inhibition of HDAC4 phosphorylation” value (HDAC4 phosphorylation) was “+”. The “Inhibition of NFKB activity” value (NFKB activity) was “+”.
`Cc1nc(Nc2ncc(C(=O)Nc3c(Cl)csc3Cl)s2)cc(N2CCN(CCO)CC2)n1` [Compound D7, N-(2,4-dichlorothiophen-3-yl)-2-((6-(4-(2-hydroxyethyl)piperazin-1-yl)-2-methylpyrimidin-4-yl)amino)thiazole-5-carboxamide] showed a concentration at 2 h (in vivo [9]) of 43 nM, a concentration at 6 h (in vivo [9]) of 5 nM and a concentration at 12 h (in vivo [9]) of 1.1 nM. For the same compound, the IC50 (MC38 cells) was under 200 nM and the IC50 (SIK3 [10]) was 15 to 20 nM.
Compound `Cc1nc(Nc2ncc(C(=O)Nc3cccnc3C)s2)cc(N2CCN(CCO)CC2)n1` [Compound C6, 2-((6-(4-(2-hydroxyethyl)piperazin-1-yl)-2-methylpyrimidin-4-yl)amino)-N-(2-methylpyridin-3-yl)thiazole-5-carboxamide] has an IC50 (SRC (GST-HIS-tag)) of under 1.5 nM.
For `Cc1nc(Nc2ncc(C(=O)Nc3c(Cl)cccc3Br)s2)cc(N2CCN(CCO)CC2)n1` [Compound B1, N-(2-bromo-6-chlorophenyl)-2-((6-(4-(2-hydroxyethyl)piperazin-l-yl)-2-methylpyrimidin-4-yl)amino)thiazole-5-carboxamide], the “cytotoxicity … compared to inhibitor alone” value (M579-A2-luc) was “increased cytotoxicity”.
For `CCOc1cccc(Cl)c1NC(=O)c1cnc(Nc2cc(N3CCN(CCO)CC3)nc(C)n2)s1` [Compound B8, N-(2-chloro-6-ethoxyphenyl)-2-((6-(4-(2-hydroxyethyl)piperazin-l-yl)-2-methylpyrimidin-4-yl)amino)thiazole-5-carboxamide], the “cytotoxicity … compared to inhibitor alone” value (M579-A2-luc) was “fails to exhibit cytotoxicity”.
With `Cc1nc(Nc2ncc(C(=O)Nc3c(Cl)ccnc3C)s2)cc(N2CCN(C)CC2)n1` [Compound C10] the IC50 (SIK3 [3]) was 493 nM, the IC50 (SRC (GST-HIS-tag)) was under 1.5 nM and the IC50 (SIK2) was 138 nM. For the same compound, the IC50 (ABL1 wt) was 4.3 nM.
Work on `Cc1nc(Nc2ncc(C(=O)Nc3c(C)ccnc3C)s2)cc(N2CCN(CCO)CC2)n1` [Compound C1, N-(2,4-dimethylpyridin-3-yl)-2-((6-(4-(2-hydroxyethyl)piperazin-1-yl)-2-methylpyrimidin-4-yl)amino)thiazole-5-carboxamide] yielded an IC50 (SRC (GST-HIS-tag)) of under 1.5 nM.
With `Cc1nc(Nc2ncc(C(=O)Nc3c(C)cncc3Cl)s2)cc(N2CCN(CCO)CC2)n1` [Compound C4, N-(3-chloro-5-methylpyridin-4-yl)-2-((6-(4-(2-hydroxyethyl)piperazin-1-yl)-2-methylpyrimidin-4-yl)amino)thiazole-5-carboxamide] the Intrinsic clearance (L/min/mg) [1] was 38 µL/min/mg, the “% Remaining at 40 min (%)” value [1] was 45% and the IC50 (SRC (GST-HIS-tag)) was under 1.5 nM. The solubility kinetic (physchem; kinetic from dmso stock) was 128 µM (≈ 62.6 µg/mL), the “Percentage unbound (%)” value (human plasma-proteins) was 2% and the “Percentage unbound (%)” value (murine plasma-proteins) was 14%. The Intrinsic clearance (L/min/mg) [2] was 115 µL/min/mg and the “% Remaining at 40 min (%)” value [2] was 10%.
